Assay results: patent US20200029564A1, “NOVEL 5-SUBSTITUTED IMIDAZOLYLMETHYLOXIRANE DERIVATIVES” (Bayer CropScience Aktiengesellschaft, priority 2016, published 2020)

Tests used:
[1] = LogP by HPLC on reversed phase columns (EEC directive 79/831 Annex V.A8); format: physicochemical; conditions: method [a]: LC-UV, acidic range, 0.1% formic acid in water and acetonitrile as eluent; for chromatographic logP: reversed phase HPLC column
Description: [table] If more than one Log P value is available within the same method, all the values are given and separated by “+”. Calibration was done with straight-chain alkan2-ones (with 3 to 16 carbon atoms) with known Log P values (measurement of Log P values using retention times with linear interpolation between successive alkanones). Lambda-max-values were determined using UV-spectra from 200 nm to 400 nm and the peak values of the chromatographic signals.

Septoria tritici = test: In vivo preventive test on Septoria tritici (leaf spot on wheat); conditions: Zymoseptoria tritici, 576 h; 500 ppm of active ingredient; preventive spray on young wheat plants; evaluated 24 days after inoculation; read-out: efficacy
Description: Example B: In Vivo Preventive Test on Septoria tritici (Leaf Spot on Wheat) [table] The active ingredients are made soluble and homogenized in a mixture of Dimethyl sulfoxide/Acetone/Tween® 80 and then diluted in water to the desired concentration. The young plants of wheat are treated by spraying the active ingredient prepared as described above. Control plants are treated only with an aqueous solution of Acetone/Dimethyl sulfoxide/Tween® 80. After 24 hours, the plants are contaminated by spraying the leaves with an aqueous suspension of Septoria tritici spores. The contaminated wheat plants are incubated for 72 hours at 18° C. and at 100% relative humidity and then for 21 days at 20° C. and at 90% relative humidity. The test is evaluated 24 days after the inoculation. 0% means an efficacy which corresponds to that of the control plants while an efficacy of 100% means that no disease is observed.

Sphaerotheca fuliginea = test: In vivo preventive test on Sphaerotheca fuliginea (powdery mildew on cucurbits); conditions: Podosphaera fuliginea, 360 h; 500 ppm of active ingredient; preventive spray on young gherkin plants; evaluated 15 days after inoculation; read-out: efficacy
Description: Example C: In Vivo Preventive Test on Sphaerotheca fuliginea (Powdery Mildew on Cucurbits) [table] The active ingredients are made soluble and homogenized in a mixture of Dimethyl sulfoxide/Acetone/Tween® 80 and then diluted in water to the desired concentration. The young plants of gherkin are treated by spraying the active ingredient prepared as described above. Control plants are treated only with an aqueous solution of Acetone/Dimethyl sulfoxide/Tween® 80. After 24 hours, the plants are contaminated by spraying the leaves with an aqueous suspension of Sphaerotheca fuidiginea spores. The contaminated gherkin plants are incubated for 72 hours at 18° C. and at 100% relative humidity and then for 12 days at 20° C. and at 70-80% relative humidity. The test is evaluated 15 days after the inoculation. 0% means an efficacy which corresponds to that of the control plants while an efficacy of 100% means that no disease is observed.

Uromyces appendiculatus = test: In vivo preventive test on Uromyces appendiculatus (bean rust); conditions: 264 h, 500 ppm of active ingredient, preventive spray on young bean plants, evaluated 11 days after inoculation, read-out: efficacy
Description: (§1) Example D: In Vivo Preventive Test on Uromyces appendiculatus (Bean Rust) [table] The active ingredients are made soluble and homogenized in a mixture of Dimethyl sulfoxide/Acetone/Tween® 80 and then diluted in water to the desired concentration. The young plants of bean are treated by spraying the active ingredient prepared as described above. Control plants are treated only with an aqueous solution of Acetone/Dimethyl sulfoxide/Tween® 80. After 24 hours, the plants are contaminated by spraying the leaves with an aqueous suspension of Uromyces appendiculatus spores. The contaminated bean plants are incubated for 24 hours at 20° C. and at 100% relative humidity and then for 10 days at 20° C. and at 70-80% relative humidity. The test is evaluated 11 days after the inoculation. 0% means an efficacy which corresponds to that of the control plants while an efficacy of 100% means that no disease is observed.

[2] = system: Blumeria graminis fsp. hordei; test: In vivo preventive Blumeria test (barley); conditions: 168 h, 500 ppm of active ingredient, preventive spray on young barley plants, evaluated 7 days after inoculation, read-out: efficacy
Description: Example F: In Vivo Preventive Blumeria Test (Barley) [table] To produce a suitable preparation of active compound, 1 part by weight of active compound or active compound combination is mixed with the stated amounts of solvent and emulsifier, and the concentrate is diluted with water to the desired concentration. To test for preventive activity, young plants are sprayed with the preparation of active compound or active compound combination at the stated rate of application. After the spray coating has been dried, the plants are dusted with spores of Blumeria graminis fsp. hordei. The plants are placed in the greenhouse at a temperature of approximately 18° C. and a relative atmospheric humidity of approximately 80% to promote the development of mildew pustules. The test is evaluated 7 days after the inoculation. 0% means an efficacy which corresponds to that of the untreated control, while an efficacy of 100% means that no disease is observed.

Puccinia recondita = test: In vivo preventive test on Puccinia recondita (brown rust on wheat); conditions: 264 h, 500 ppm of active ingredient, preventive spray on young wheat plants, evaluated 11 days after inoculation, read-out: efficacy
Description: as §1, with “A:” for “D:”, “Puccinia recondita (Brown Rust on Wheat)” for “Uromyces appendiculatus (Bean Rust)”, “wheat” for “bean”, “Puccinia recondita” for “Uromyces appendiculatus”

| Structure (SMILES) | chromatographic logP [1] | LogP [1] | pest or weed control at 500 ppm (Septoria tritici) | pest or weed control at 500 ppm (Sphaerotheca fuliginea) | pest or weed control at 500 ppm (Uromyces appendiculatus) | pest or weed control at 500 ppm [2] | pest or weed control at 500 ppm (Puccinia recondita) |
| --- | --- | --- | --- | --- | --- | --- | --- |
| Fc1ccc(C2(Cn3cncc3Cl)OC2c2ccccc2Cl)cc1 (stereo not drawn) [I-01] | 3.19 |  | 90 to 100% | 90 to 100% | 90 to 100% | 90 to 100% | 90 to 100% |
| Fc1ccc(C2(Cn3cncc3F)OC2c2ccccc2Cl)cc1 (stereo not drawn) [I-02] | 2.62 |  | 90 to 100% | 90 to 100% | 90 to 100% | 90 to 100% | 90 to 100% |
| N#Cc1cncn1CC1(c2ccc(C(F)(F)F)cc2)OC1c1ccccc1Cl (stereo not drawn) [I-05] | 3.96 |  | 90 to 100% | 90 to 100% | 90 to 100% | 90 to 100% | 90 to 100% |
| N#Cc1cncn1CC1(c2ccc(OC(F)(F)F)cc2)OC1c1ccccc1Cl (stereo not drawn) [I-07] | 4.11 |  | 90 to 100% | 90 to 100% | 90 to 100% | 90 to 100% | 90 to 100% |
| N#Cc1cncn1CC1(c2ccc(F)cc2F)OC1c1ccccc1Cl (stereo not drawn) [I-09] | 3.06 |  | 90 to 100% | 90 to 100% | 90 to 100% |  |  |
| Fc1ccc(C2(Cn3cncc3F)OC2c2ccccc2Br)cc1 (stereo not drawn) [I-14] | 2.66 |  | 90 to 100% | 90 to 100% | 90 to 100% | 90 to 100% |  |
| Fc1ccc(C2(Cn3cncc3F)OC2c2cccnc2Cl)cc1 (stereo not drawn) [I-15] | 1.57 |  |  | 90 to 100% |  |  |  |
| N#Cc1cncn1CC1(c2ccc(F)cc2)OC1c1cccnc1Cl (stereo not drawn) [I-16] | 2.2 |  |  | 90 to 100% |  |  |  |
| N#Cc1cncn1CC1(c2ccc(F)cc2)OC1c1cccnc1Cl (stereo not drawn) [I-17] |  | 2.50 ^[a] | 90 to 100% |  | 90 to 100% |  |  |
| COc1ccc(C2(Cn3cncc3C#N)OC2c2ccccc2Cl)cn1 (stereo not drawn) [I-19] | 2.86 |  | 90 to 100% | 90 to 100% | 80 to 89% |  | 90 to 100% |
| N#Cc1cncn1CC1(c2ccc(F)cc2)OC1c1ccnc(Cl)c1 (stereo not drawn) [I-20] | 2.5 |  | 90 to 100% | 90 to 100% | 90 to 100% |  | 90 to 100% |
| N#Cc1cncn1CC1(c2ccc(F)cc2)OC1c1cccc(Cl)c1 (stereo not drawn) [I-21] | 3.35 |  | 80 to 89% | 90 to 100% | 90 to 100% |  | 90 to 100% |
| N#Cc1cncn1CC1(c2ccc(F)cc2)OC1c1cccc(Br)c1 (stereo not drawn) [I-23] | 3.44 |  | 90 to 100% | 90 to 100% | 90 to 100% |  | 90 to 100% |
| N#Cc1cncn1CC1(c2ccc(Cl)cc2F)OC1c1ccccc1Cl (stereo not drawn) [I-25] | 3.8 |  | 90 to 100% | 90 to 100% | 90 to 100% | 90 to 100% | 90 to 100% |
| N#Cc1cncn1CC1(c2ccc(F)cc2Cl)OC1c1ccccc1Cl (stereo not drawn) [I-29] | 3.71 |  | 90 to 100% | 90 to 100% | 90 to 100% | 90 to 100% | 90 to 100% |

Further lines, with some results ahead:

| chromatographic logP [1] | LogP [1] | Structure (SMILES) | pest or weed control at 500 ppm (Septoria tritici) | pest or weed control at 500 ppm (Sphaerotheca fuliginea) | pest or weed control at 500 ppm (Uromyces appendiculatus) | pest or weed control at 500 ppm [2] | pest or weed control at 500 ppm (Puccinia recondita) |
| --- | --- | --- | --- | --- | --- | --- | --- |
| 3.33 |  | N#Cc1cncn1C[C@]1(c2ccc(F)cc2)O[C@H]1c1ccccc1Cl (relative stereo) [I-03, trans 3-[[3-(2-chlorophenyl)-2-(4-fluorophenyl)oxiran-2-yl]methyl]imidazole-4-carbonitrile] | 90 to 100% | 90 to 100% | 90 to 100% | 90 to 100% |  |
| 2.98 |  | N#Cc1cncn1C[C@]1(c2ccc(F)cc2)O[C@@H]1c1ccccc1Cl (relative stereo) [I-04, cis 3-[[3-(2-chlorophenyl)-2-(4-fluorophenyl)oxiran-2-yl]methyl]imidazole-4-carbonitrile] | 80 to 89% | 90 to 100% | 80 to 89% |  |  |
| 3.68 |  | N#Cc1cncn1CC1(c2ccc(Cl)cc2)OC1c1ccccc1Cl (stereo not drawn) [I-06] | 90 to 100% | 90 to 100% | 90 to 100% | 90 to 100% | 90 to 100% |
| 3.85 |  | N#Cc1cncn1CC1(c2ccc(Br)cc2)OC1c1ccccc1Cl (stereo not drawn) [I-08] | 90 to 100% | 90 to 100% | 90 to 100% |  |  |
| 3.41 |  | N#Cc1cncn1CC1(c2ccc(Cl)cc2)OC1c1ccccc1F (stereo not drawn) [I-10] | 90 to 100% | 90 to 100% | 90 to 100% | 90 to 100% | 90 to 100% |
| 3.83 |  | N#Cc1cncn1CC1(c2ccc(Cl)cc2)OC1c1ccccc1Br (stereo not drawn) [I-11] | 90 to 100% |  | 90 to 100% | 80 to 89% | 90 to 100% |
| 3.06 |  | N#Cc1cncn1CC1(c2ccc(F)cc2)OC1c1ccccc1F (stereo not drawn) [I-12] | 90 to 100% | 90 to 100% | 90 to 100% | 90 to 100% | 90 to 100% |
| 3.44 |  | N#Cc1cncn1CC1(c2ccc(F)cc2)OC1c1ccccc1Br (stereo not drawn) [I-13] | 90 to 100% |  | 90 to 100% | 90 to 100% | 90 to 100% |
| 3.26 |  | COc1ccc(C2(Cn3cncc3C#N)OC2c2ccccc2Cl)cc1 (stereo not drawn) [I-22] | 90 to 100% | 90 to 100% | 90 to 100% |  | 90 to 100% |
| 3.37 |  | N#Cc1cncn1CC1(c2ccc(F)cc2)OC1c1ccc(Cl)cc1 (stereo not drawn) [I-24] | 90 to 100% | 90 to 100% | 90 to 100% |  | 90 to 100% |
